Measured values from PubChem BioAssay AID2060884 (Molecular Pharmacology Branch, DTP, NCI, 2025).

Tested on: NCI-H929 complex spheroids, viability % test/control
Assay: Anticancer human tumor NCI-H929 cell line growth inhibition [RAS];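 note: compound exposure lasted seven days before viability was read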;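 for viability, T/C: 100% = DMSO vehicle control viability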
Settings: for IC50: curve of first compound; for viability, T/C: stronger effect = lower value
Outline: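 Multi-cell-type spheroids: tumor cells plus HUVEC endothelial cells and mesenchymal stem cells. RAS-pathway inhibitors were combined with targeted agents, each dosed in half-log steps down from clinical Cmax, or from 10 microM when Cmax was unknown.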

C=CC(=O)N1CCN(c2nc(OCC3CCCN3C)nc3c(F)c(-c4nc(N)cc(C)c4C(F)(F)F)c(Cl)cc23)C(C)C1 (centres undefined) + CCn1c(-c2cc(N3CCN(C)CC3)cnc2C(C)OC)c2c3cc(ccc31)-c1csc(n1)CC(NC(=O)C1CC1C)C(=O)N1CCCC(N1)C(=O)OCC(C)(C)C2
IC50 (second compound 0.000949 µM): > 1000 nM
IC50 (second compound 0.003 µM): > 1000 nM
IC50 (second compound 0.00949 µM): > 1000 nM
IC50 (second compound 0.03 µM): > 1000 nM
IC50 (second compound 0.0949 µM): < 3.16 nM
IC50 (second compound 0.3 µM): < 3.16 nM
viability, T/C (second compound 0.000949 µM, first compound 0.00316 µM): 98.6%
viability, T/C (second compound 0.000949 µM, first compound 0.01 µM): 92.4%
viability, T/C (second compound 0.000949 µM, first compound 0.0316 µM): 102%
viability, T/C (second compound 0.000949 µM, first compound 0.1 µM): 96.4%
viability, T/C (second compound 0.000949 µM, first compound 0.316 µM): 101%
viability, T/C (second compound 0.000949 µM, first compound 1 µM): 107%
viability, T/C (second compound 0.003 µM, first compound 0.00316 µM): 89.5%
viability, T/C (second compound 0.003 µM, first compound 0.01 µM): 97.1%
viability, T/C (second compound 0.003 µM, first compound 0.0316 µM): 97.5%
viability, T/C (second compound 0.003 µM, first compound 0.1 µM): 96.6%
viability, T/C (second compound 0.003 µM, first compound 0.316 µM): 101%
viability, T/C (second compound 0.003 µM, first compound 1 µM): 97.2%
viability, T/C (second compound 0.00949 µM, first compound 0.00316 µM): 109%
viability, T/C (second compound 0.00949 µM, first compound 0.01 µM): 115%
viability, T/C (second compound 0.00949 µM, first compound 0.0316 µM): 116%
viability, T/C (second compound 0.00949 µM, first compound 0.1 µM): 114%
viability, T/C (second compound 0.00949 µM, first compound 0.316 µM): 114%
viability, T/C (second compound 0.00949 µM, first compound 1 µM): 116%
viability, T/C (second compound 0.03 µM, first compound 0.00316 µM): 69.4%
viability, T/C (second compound 0.03 µM, first compound 0.01 µM): 70.8%
viability, T/C (second compound 0.03 µM, first compound 0.0316 µM): 78.2%
viability, T/C (second compound 0.03 µM, first compound 0.1 µM): 91%
viability, T/C (second compound 0.03 µM, first compound 0.316 µM): 89.7%
viability, T/C (second compound 0.03 µM, first compound 1 µM): 65.1%
viability, T/C (second compound 0.0949 µM, first compound 0.00316 µM): 8.79%
viability, T/C (second compound 0.0949 µM, first compound 0.01 µM): 7.92%
viability, T/C (second compound 0.0949 µM, first compound 0.0316 µM): 7.39%
viability, T/C (second compound 0.0949 µM, first compound 0.1 µM): 10.4%
viability, T/C (second compound 0.0949 µM, first compound 0.316 µM): 12.4%
viability, T/C (second compound 0.0949 µM, first compound 1 µM): 8.5%
viability, T/C (second compound 0.3 µM, first compound 0.00316 µM): 4.59%
viability, T/C (second compound 0.3 µM, first compound 0.01 µM): 4.22%
viability, T/C (second compound 0.3 µM, first compound 0.0316 µM): 3.75%
viability, T/C (second compound 0.3 µM, first compound 0.1 µM): 4.24%
viability, T/C (second compound 0.3 µM, first compound 0.316 µM): 4.79%
viability, T/C (second compound 0.3 µM, first compound 1 µM): 3.26%

CCC(CC)c1cc(NC2CCC(N)C2)n2nccc2n1 (centres undefined) + C#Cc1c(F)ccc2cc(O)cc(-c3ncc4c(N5CC6CCC(C5)N6)nc(OCC56CCCN5CC(F)C6)nc4c3F)c12
IC50 (second compound 0.0316 µM): 1790 nM
IC50 (second compound 0.1 µM): 1800 nM
IC50 (second compound 0.316 µM): 1790 nM
IC50 (second compound 1 µM): 1780 nM
IC50 (second compound 3.16 µM): 1790 nM
IC50 (second compound 10 µM): 1820 nM
viability, T/C (second compound 0.0316 µM, first compound 0.0316 µM): 95.1%
viability, T/C (second compound 0.0316 µM, first compound 0.1 µM): 95.2%
viability, T/C (second compound 0.0316 µM, first compound 0.316 µM): 101%
viability, T/C (second compound 0.0316 µM, first compound 1 µM): 109%
viability, T/C (second compound 0.0316 µM, first compound 3.16 µM): 1.07%
viability, T/C (second compound 0.0316 µM, first compound 10 µM): 0.31%
viability, T/C (second compound 0.1 µM, first compound 0.0316 µM): 97.2%
viability, T/C (second compound 0.1 µM, first compound 0.1 µM): 97.7%
viability, T/C (second compound 0.1 µM, first compound 0.316 µM): 99.7%
viability, T/C (second compound 0.1 µM, first compound 1 µM): 110%
viability, T/C (second compound 0.1 µM, first compound 3.16 µM): 1.11%
viability, T/C (second compound 0.1 µM, first compound 10 µM): 0.27%
viability, T/C (second compound 0.316 µM, first compound 0.0316 µM): 95.4%
viability, T/C (second compound 0.316 µM, first compound 0.1 µM): 98.1%
viability, T/C (second compound 0.316 µM, first compound 0.316 µM): 97.6%
viability, T/C (second compound 0.316 µM, first compound 1 µM): 113%
viability, T/C (second compound 0.316 µM, first compound 3.16 µM): 0.58%
viability, T/C (second compound 0.316 µM, first compound 10 µM): 0.23%
viability, T/C (second compound 1 µM, first compound 0.0316 µM): 93.8%
viability, T/C (second compound 1 µM, first compound 0.1 µM): 95.7%
viability, T/C (second compound 1 µM, first compound 0.316 µM): 99.7%
viability, T/C (second compound 1 µM, first compound 1 µM): 111%
viability, T/C (second compound 1 µM, first compound 3.16 µM): 0.22%
viability, T/C (second compound 1 µM, first compound 10 µM): 0.66%
viability, T/C (second compound 3.16 µM, first compound 0.0316 µM): 94.1%
viability, T/C (second compound 3.16 µM, first compound 0.1 µM): 98%
viability, T/C (second compound 3.16 µM, first compound 0.316 µM): 96.4%
viability, T/C (second compound 3.16 µM, first compound 1 µM): 113%
viability, T/C (second compound 3.16 µM, first compound 3.16 µM): 1.09%
viability, T/C (second compound 3.16 µM, first compound 10 µM): 0.81%
viability, T/C (second compound 10 µM, first compound 0.0316 µM): 102%
viability, T/C (second compound 10 µM, first compound 0.1 µM): 101%
viability, T/C (second compound 10 µM, first compound 0.316 µM): 99.1%
viability, T/C (second compound 10 µM, first compound 1 µM): 111%
viability, T/C (second compound 10 µM, first compound 3.16 µM): 0.7%
viability, T/C (second compound 10 µM, first compound 10 µM): 0.12%
